These results are taken from patent US20060030603A1, “Novel aryl urea analogs and use thereof as antibacterial agents” (priority 2004, published 2006).

The structures appear in SMILES notation. Converted amounts (≈) assume the structure as drawn. Read-outs that look alike come from different tables or passages of the source.

Series [1] has as its system E. coli ATCC 25922. Description: MIC assay, E. coli. In kind it is cell-based. Here is the method:
(§1) In vitro structure/activity relationship (“SAR”) tests were performed according to the following procedure: MIC assays were carried out in a 150 μL volume in duplicate in 96-well clear flat-bottom plates. The bacterial suspension from an overnight culture growth in the appropriate medium was added to a solution of test compound in 0.5% DMSO in water. Final bacterial inoculum was approximate 10^3-10^4 CFU/well. The percentage growth of the bacteria in the test wells relative to that observed for a control well containing no compound was determined by measuring absorbance at 595 nm (A595) after 20-24 h at 37° C. […] The bacterial strains used for the assays include S. aureus ATCC 13709, S. pyogenes ATCC 49399, E. faecalis ATCC 29212, E. faecium ATCC 6569, E. coli ATCC 25922, K. pneumoniae ATCC 13383, P. vulgaris ATCC 8427, P. aeruginosa ATCC 25416. The results of the in vitro SAR tests are in Tables 1-3.

Series [2] has as its system E. faecium ATCC 6569. The experiment in a line: MIC assay, E. faecium. In kind it is cell-based. As to the method:
as §1

Series [3] relates to P. aeruginosa ATCC 25416. The experiment in a line: MIC assay, P. aeruginosa. The format is cell-based. As to the method: as §1
Series [4] concerns E. faecalis ATCC 29212. The experiment in a line: MIC assay, E. faecalis. In kind it is cell-based. Here is the method:
as §1

The subject of series [5] is S. aureus ATCC 13709. Description: MIC assay, S. aureus. In kind it is cell-based. As to conditions: Staphylococcus aureus. As to the method:
as §1

Series [6] is described as follows: log P. In kind it is physicochemical.
Series [7] has as its system S. pyogenes ATCC 49399. Description: MIC assay, S. pyogenes. The format is cell-based. Here is the method:
as §1

Series [8] concerns P. vulgaris ATCC 8427. The experiment in a line: MIC assay, P. vulgaris. In kind it is cell-based. As to the method:
as §1

For series [9], the system named is K. pneumoniae ATCC 13383. The experiment in a line: MIC assay, K. pneumoniae. In kind it is cell-based. Here is the method:
as §1

Series [10] in a line: Acute Toxicity Study (maximum tolerated dose). In kind it is in vivo. As to conditions: observed seven days; for toxic dose via the IP route: intraperitoneal, 150 down to 19 mg/kg tested; for survival in the subQ group: subcutaneous, 150 down to 19 mg/kg, compound appeared to precipitate at injection site. Here is the method: Acute Toxicity Study: The maximum tolerated dose for either compound 12e or 14b was determined by administering the compound from 150 mg/kg down to 19 mg/kg given either intraperitoneally (IP) or subcutaneously (subQ). […] On autopsy some of the compound appeared to precipitate at the injection site thereby reducing the effective dose. Via the IP route compound 12e was toxic down to 37 mg/kg and compound 14b was only toxic at 150 mg/kg.

Series [11] is described as follows: MIT HUH-7 CC50 48h cytotoxicity. The format is cell-based. The settings on record: human, HUH-7 cells; HUH-7, 48h.
Series [12] concerns S. aureus (ATCC 13709). Description: Mouse Protection Assay (lethal murine model of bacterial infection). The format is in vivo, ICR-CD-1 female mice. As to conditions: 14b HCl salt. As to the method: The in vivo tests were preformed according to the following procedure:
Mouse Protection Assay: 10 mice/dose group (ICR-CD-1 female mice 18-20 grams, Charles River) were infected with a lethal dose (10^6 CFU/mouse) of S. aureus (ATCC 13709) suspended in 7.5% hog Gastric Mucin IP. The infected animals were treated at 1 h and 3 h post infection with either compound 12e (lactate salt) from 37 mg/kg down to 2.3 mg/kg or compound 14b (HCl salt) from 75 mg/kg down to 2.3 mg/kg (0.1 mL/mouse). The positive control drug was Vancomycin (Eli Lilly) 1 mg/kg.

The mark [13] stands for this setting: Escherichia coli, ATCC25922; read-out: MIC E. coli ATCC 25922.
The mark [14] stands for this setting: Enterococcus faecium, ATCC6569; read-out: MIC E. faecium ATCC 6569.
Where [15] appears, read: Pseudomonas aeruginosa, ATCC25416; read-out: MIC P. aeruginosa ATCC 25416.
Setting [16] is: Enterococcus faecalis, ATCC29212; read-out: MIC E. faecalis ATCC 29212.
[17] abbreviates: ATCC13709, Table 2, benzylamino group modified analogs, read-out: MIC S. aureus.
[18] abbreviates: ATCC13709, Table 4, read-out: MIC S. aureus ATCC 13709.
Where [19] appears, read: Streptococcus pyogenes, ATCC49399; read-out: MIC S. pyogenes ATCC 49399.
Where [20] appears, read: 2.3 × 2 mg/Kg, 1 h and 3 h post infection, one week, 12e lactate salt.
Where [21] appears, read: 4.7 × 2 mg/Kg, 1 h and 3 h post infection, one week, 12e lactate salt.
Where [22] appears, read: 9.4 × 2 mg/Kg, 1 h and 3 h post infection, one week, 12e lactate salt.
Setting [23] is: 18.8 × 2 mg/Kg, 1 h and 3 h post infection, one week, 12e lactate salt.
Setting [24] is: 37.5 × 2 mg/Kg, 1 h and 3 h post infection, one week, 12e lactate salt.
[25] abbreviates: Proteus vulgaris, ATCC8427; read-out: MIC P. vulgaris ATCC 8427.
Setting [26] is: Klebsiella pneumoniae, ATCC13383; read-out: MIC K. pneumoniae ATCC 13383.

Take `O=C(NCCCNCc1cc(Br)cc(Br)c1)Nc1ccc(Cl)c(Cl)c1` [9f, 1-[3-(3,5-Dibromo-benzylamino)-propyl]-3-(3,4-dichloro-phenyl)-urea]: the MIC in series [1] (Escherichia coli, ATCC25922, read-out: MIC E. coli ATCC 25922) is 12 to 25 µM (≈ 6.12 to 12.8 µg/mL); in series [2] (Enterococcus faecium, ATCC6569, read-out: MIC E. faecium ATCC 6569), over 100 µM; in [3] (Pseudomonas aeruginosa, ATCC25416, read-out: MIC P. aeruginosa ATCC 25416), over 100 µM; in series [4] (Enterococcus faecalis, ATCC29212, read-out: MIC E. faecalis ATCC 29212), 6 to 12 µM (≈ 3.06 to 6.12 µg/mL); in series [5] (ATCC13709, read-out: MIC S. aureus) it was 3 to 6 µM (≈ 1.53 to 3.06 µg/mL); in series [5] (ATCC13709, read-out: MIC S. aureus ATCC 13709), 3 to 6 µM (≈ 1.53 to 3.06 µg/mL). In addition, the MIC in [7] (Streptococcus pyogenes, ATCC49399, read-out: MIC S. pyogenes ATCC 49399) is 6 to 12 µM (≈ 3.06 to 6.12 µg/mL); in series [8] (Proteus vulgaris, ATCC8427, read-out: MIC P. vulgaris ATCC 8427), 12 to 25 µM (≈ 6.12 to 12.8 µg/mL); in series [9] (Klebsiella pneumoniae, ATCC13383, read-out: MIC K. pneumoniae ATCC 13383) it was 6 to 12 µM (≈ 3.06 to 6.12 µg/mL). The same compound gave a logP in series [6] of 4.89.
On to `O=C(NCCCNCc1ccc(-c2ccccc2)cc1)Nc1ccc(C(F)(F)F)cc1` [12e, 1-{3-[(Biphenyl-4-ylmethyl)-amino]-propyl}-3-(4-trifluoromethyl-phenyl)-urea], for which the MIC in [1] (setting [13]) was 6 to 12 µM (≈ 2.56 to 5.13 µg/mL); in [2] (setting [14]) it was over 100 µM; in [3] (setting [15]), over 100 µM; in series [4] (setting [16]) it was over 100 µM; in series [5] (setting [17]) it was 3 to 6 µM (≈ 1.28 to 2.56 µg/mL); in series [5] (setting [18]), 3 to 6 µM (≈ 1.28 to 2.56 µg/mL). Moreover, the MIC lay within 3 to 6 µM (≈ 1.28 to 2.56 µg/mL) in series [7] (setting [19]), 12 to 25 µM (≈ 5.13 to 10.7 µg/mL) in series [8] (setting [25]) and 6 to 12 µM (≈ 2.56 to 5.13 µg/mL) in [9] (setting [26]). Besides, the “toxic dose via the IP route” value in series [10] is at least 37 mg/kg. Moreover, in series [10], the “survival in the subQ group” value was “all animals survived at all doses tested”. The compound further displayed a CC50 at 48 h in [11] of 25 to 50 µM. This compound also had a logP in series [6] of 4.91. Also, the “Mice Alive/Total” value in [12] (setting [20]) was 0/10; in series [12] (setting [21]) it was 2/10; in series [12] (setting [22]) it was 4/10; in [12] (setting [23]) it was 3/10; in series [12] (setting [24]), 3/10.
Take `O=C(NCCCNCc1ccc(Oc2ccccc2)cc1)Nc1ccc(C(F)(F)F)cc1` [12h, 1-[3-(4-Phenoxy-benzylamino)-propyl]-3-(4-trifluoromethyl-phenyl)-urea]: the MIC in series [1] (setting [13]) was 6 to 12 µM (≈ 2.66 to 5.32 µg/mL); in series [2] (setting [14]) it was over 100 µM; in series [3] (setting [15]) it was over 100 µM; in series [4] (setting [16]), 3 to 6 µM (≈ 1.33 to 2.66 µg/mL); in series [5] (setting [17]), 3 to 6 µM (≈ 1.33 to 2.66 µg/mL); in series [5] (setting [18]), 3 to 6 µM (≈ 1.33 to 2.66 µg/mL). Further, the results for the MIC in series [7] (setting [19]), in series [8] (setting [25]) and in [9] (setting [26]) were 3 to 6 µM (≈ 1.33 to 2.66 µg/mL), 12 to 25 µM (≈ 5.32 to 11.1 µg/mL) and 6 to 12 µM (≈ 2.66 to 5.32 µg/mL), respectively. Also, the CC50 at 48 h in [11] is 12.5 to 25 µM. The compound also gave a logP in [6] of 4.77.
Regarding `CC(C)(C)c1ccc(CNCCCNC(=O)Nc2ccc(C(F)(F)F)cc2)cc1` [12i, 1-[3-(4-tert-Butyl-benzylamino)-propyl]-3-(4-trifluoromethyl-phenyl)-urea], the MIC in series [1] (setting [13]) was 6 to 12 µM (≈ 2.44 to 4.89 µg/mL); in series [2] (setting [14]), 3 to 6 µM (≈ 1.22 to 2.44 µg/mL); in [3] (setting [15]), over 100 µM; in series [4] (setting [16]), 6 to 12 µM (≈ 2.44 to 4.89 µg/mL); in series [5] (setting [17]), 3 to 6 µM (≈ 1.22 to 2.44 µg/mL); in series [5] (setting [18]), 3 to 6 µM (≈ 1.22 to 2.44 µg/mL). The MIC lay within 3 to 6 µM (≈ 1.22 to 2.44 µg/mL) in series [7] (setting [19]), 12 to 25 µM (≈ 4.89 to 10.2 µg/mL) in series [8] (setting [25]) and 3 to 6 µM (≈ 1.22 to 2.44 µg/mL) in [9] (setting [26]). The logP in series [6] was 4.94.
In the case of `CCOc1c(Br)cc(Br)cc1CNCCCNC(=O)Nc1ccc(C(F)(F)F)cc1` [12s, 1-[3-(3,5-Dibromo-2-ethoxy-benzylamino)-propyl]-3-(4-trifluoromethyl-phenyl)-urea], the MIC is 12 to 25 µM (≈ 6.64 to 13.8 µg/mL) in [1] (setting [13]); 6 to 12 µM (≈ 3.32 to 6.64 µg/mL) in series [2] (setting [14]); over 100 µM in series [3] (setting [15]); 6 to 12 µM (≈ 3.32 to 6.64 µg/mL) in series [4] (setting [16]); 3 to 6 µM (≈ 1.66 to 3.32 µg/mL) in [5] (setting [17]); 3 to 6 µM (≈ 1.66 to 3.32 µg/mL) in [5] (setting [18]). Besides, the MIC lay within 3 to 6 µM (≈ 1.66 to 3.32 µg/mL) in series [7] (setting [19]), 12 to 25 µM (≈ 6.64 to 13.8 µg/mL) in series [8] (setting [25]) and 3 to 6 µM (≈ 1.66 to 3.32 µg/mL) in [9] (setting [26]). The CC50 at 48 h in series [11] was 50 to 100 µM. Further, in series [6], the logP is 5.1.
Turning to `CN(CCCNC(=O)Nc1ccc(C(F)(F)F)cc1)CCCOc1ccc(Br)cc1Br` [14b, 1-(3-{[3-(2,4-Dibromo-phenoxy)-propyl]-methyl-amino}-propyl)-3-(4-trifluoromethyl-phenyl)-urea], the MIC was 12 to 25 µM (≈ 6.81 to 14.2 µg/mL) in series [1] (setting [13]); over 100 µM in series [2] (setting [14]); over 100 µM in series [3] (setting [15]); 3 to 6 µM (≈ 1.7 to 3.4 µg/mL) in [4] (setting [16]); 3 to 6 µM (≈ 1.7 to 3.4 µg/mL) in series [5] (setting [17]); 3 to 6 µM (≈ 1.7 to 3.4 µg/mL) in [5] (setting [18]). Further, the MIC lay within 3 to 6 µM (≈ 1.7 to 3.4 µg/mL) in series [7] (setting [19]), 12 to 25 µM (≈ 6.81 to 14.2 µg/mL) in series [8] (setting [25]) and 3 to 6 µM (≈ 1.7 to 3.4 µg/mL) in series [9] (setting [26]). Further, in [10], the “toxic dose via the IP route” value turned out to be 150 mg/kg. Besides, in [10], the “survival in the subQ group” value is on record as “all animals survived at all doses tested”. In addition, the CC50 at 48 h in [11] is over 100 µM. In series [6], this compound displayed a logP of 5.3. Besides, the “Mice Alive/Total” value in series [12] (setting [20]) was 3/10; in [12] (setting [21]) it was 4/10; in series [12] (setting [22]), 6/10; in series [12] (setting [23]), 6/10; in series [12] (setting [24]) it was 7/10; in series [12] (75 × 2 mg/Kg, treated 1 h and 3 h post infection, observed one week), 4/10.
